What was measured:
[1] = system: γH2Ax; assay: γH2Ax level by Western blot in U2OS cells; type: cell-based; conditions: UNC0638 with etoposide
[2] = system: G9a/GLC; assay: H3K9me2 level in U2OS cells; type: cell-based; conditions: incubation with inhibitor vs solvent DMSO
[3] = system: pT2609 and γH2Ax foci; assay: Confocal immunofluorescence of pT2609-DNA-PKcs and γH2Ax foci in U2OS cells; conditions: UNC0638 together with ETO, Pearson correlation coefficient, n=5

COc1cc2c(NC3CCN(C(C)C)CC3)nc(C3CCCCC3)nc2cc1OCCCN1CCCC1 [UNC0638]
effect on etoposide-induced γH2Ax pattern [1]: not affected
H3K9me2 level [2]: decreased
colocalization pattern of γH2Ax and pT2609 foci [3]: did not significantly alter

— article PMC4032624 (Molecular cell, 2013)
